Experimental data reported in article PMC12396409, “Screening and hit evaluation of a microbial metabolite library against the pathogenic Plasmodium falciparum and Toxoplasma gondii parasites” (International Journal for Parasitology: Drugs and Drug …, 2025).
Like-named read-outs stand apart in the source and are kept apart here.

How the values were obtained:
[1] = tested on: P. falciparum 3D7 parasites; assay: P. falciparum growth inhibition assay, 1-cycle (72 h treatment), SYBR DNA staining (library screen at 2 μg/mL and dose-response); type: cell-based, Plasmodium falciparum; conditions: for activity in the screen against P. falciparum: 2 μg/mL, active = ≥80 % growth inhibition
[2] = tested on: P. falciparum 3D7 parasites; assay: P. falciparum growth inhibition assay, 2-cycle (120 h treatment), delayed-death screen and dose-response; type: cell-based, Plasmodium falciparum
[3] = tested on: T. gondii RH strain (RH-Tub-eYFP) tachyzoites; assay: microbe, parasite or virus in culture; type: cell-based, Toxoplasma gondii
[4] = tested on: P. falciparum; conditions: cited from earlier work
[5] = tested on: HFF cells
[6] = Plasmodium falciparum, 3D7; P. falciparum, 2 μg/mL, 72 h; read-out: 1) Growth (%) at 72 h
[7] = Plasmodium falciparum, 3D7, library screen at 2 μg/mL, 72 h, % growth, replicate 1, read-out: Pf_72h_%Growth_Rep1
[8] = Plasmodium falciparum, 3D7, library screen at 2 μg/mL, 72 h, % growth, replicate 2, read-out: Pf_72h_%Growth_Rep2
[9] = Plasmodium falciparum, 3D7; P. falciparum, 2 μg/mL, 120 h; read-out: 2) Growth (%) at 120 h
[10] = Plasmodium falciparum, 3D7, library screen at 2 μg/mL, 120 h, % growth, replicate 1, read-out: Pf_120h_%Growth_Rep1
[11] = Plasmodium falciparum, 3D7, library screen at 2 μg/mL, 120 h, % growth, replicate 2, read-out: Pf_120h_%Growth_Rep2
[12] = Toxoplasma gondii, 72 h, library screen at 2 μg/mL, 72 h, % growth, replicate 1; read-out: Tg_72h_%Growth_Rep1
[13] = Toxoplasma gondii, 72 h, library screen at 2 μg/mL, 72 h, % growth, replicate 2; read-out: Tg_72h_%Growth_Rep2
[14] = 48–72 h, ref Wilson et al., 2013, read-out: IC50 at 48–72 h
[15] = Plasmodium falciparum, 3D7, P. falciparum, 72 h, screen at 2 μg/mL, replicate 1, read-out: Pf_72h_%Growth_Rep1
[16] = Plasmodium falciparum, 3D7, P. falciparum, 72 h, screen at 2 μg/mL, replicate 2, read-out: Pf_72h_%Growth_Rep2
[17] = Plasmodium falciparum, 3D7, P. falciparum, 120 h, screen at 2 μg/mL, replicate 1, read-out: Pf_120h_%Growth_Rep1
[18] = Plasmodium falciparum, 3D7, P. falciparum, 120 h, screen at 2 μg/mL, replicate 2, read-out: Pf_120h_%Growth_Rep2
[19] = Toxoplasma gondii, 72 h, T. gondii, 72 h, screen at 2 μg/mL, replicate 1; read-out: Tg_72h_%Growth_Rep1
[20] = Toxoplasma gondii, 72 h, T. gondii, 72 h, screen at 2 μg/mL, replicate 2; read-out: Tg_72h_%Growth_Rep2
[21] = library screen at 2 μg/mL, 72 h, % growth, replicate 1
[22] = library screen at 2 μg/mL, 72 h, % growth, replicate 2

C[C@H]1c2cccc(O)c2C(=O)C2=C(O)[C@]3(O)C(=O)C(C(N)=O)=C(O)[C@@H](N(C)C)[C@@H]3[C@@H](O)[C@@H]21 [Doxycycline, reference compound]
activity at 2 µg/mL [1, 6]: 48.6%
activity at 2 µg/mL [1, 7]: 55.3%
activity at 2 µg/mL [1, 8]: 41.9%
3) Fold change (72 h/120 h) [2]: 6.3
activity at 2 µg/mL [2, 9]: 7.68%
activity at 2 µg/mL [2, 10]: 8.86%
activity at 2 µg/mL [2, 11]: 6.5%
percent parasite growth at 2 µg/mL [3, 12]: 41%
percent parasite growth at 2 µg/mL [3, 13]: 47.5%
IC50 [4, 14]: ≥ 5000 nM
IC50 at more than 96 h ([4]; ref Wilson et al., 2013): low nanomolar range

COCC(=O)N[C@@H](C(=O)N1NCCC[C@H]1C(=O)N[C@@H](Cc1ccccc1)[C@@H](O)[C@H](C)C(=O)N[C@H]1CCN(C(N)=O)C1=O)[C@H](O)C(C)C [Padanamide A]
activity in the screen against P. falciparum ([1]; 72 h): active against P. falciparum
IC50 ([4]; another study, ref Cheng et al., 2015, read-out: IC50 in P. falciparum): ~200 nM

Micrococcin P1
IC50 ([1]; 3D7, 72 h treatment, mean ± S.D., n ≥ 3, read-out: IC50 (μM), P. falciparum): 0.02 ± 0.004 µM
IC50 ([1]; 72 h treatment, read-out: IC50, P. falciparum): < 0.2 µM
IC50 ([4]; within 48 h, ref Rogers et al., 1998, read-out: IC50 in P. falciparum within 48 h): 35 nM

C=C(NC(=O)C(=C)NC(=O)c1csc(C2=N[C@@H]3c4csc(n4)[C@H]4NC(=O)c5csc(n5)[C@H]([C@](C)(O)[C@@H](C)O)NC(=O)[C@H]5CSC(=N5)/C(=C/C)NC(=O)[C@H]([C@@H](C)O)NC(=O)c5csc(n5)[C@]3(CC2)NC(=O)[C@H](C)NC(=O)C(=C)NC(=O)[C@H](C)NC(=O)[C@H]([C@@H](C)CC)N[C@@H]2C=Cc3c([C@H](C)O)cc(nc3[C@H]2O)C(=O)O[C@@H]4C)n1)C(N)=O [thiostrepton, reference compound]
activity at 2 µg/mL [1, 15]: 56.7%
activity at 2 µg/mL [1, 16]: 65.2%
activity at 2 µg/mL [2, 17]: 60.6%
activity at 2 µg/mL [2, 18]: 35.5%
percent parasite growth at 2 µg/mL ([3]; Toxoplasma gondii; T. gondii, 72 h, screen at 2 μg/mL, replicate 1; read-out: Tg_72h_%Growth_Rep1): 86.7%
percent parasite growth at 2 µg/mL ([3]; Toxoplasma gondii; T. gondii, 72 h, screen at 2 μg/mL, replicate 2; read-out: Tg_72h_%Growth_Rep2): 93.6%
IC50 ([4]; ref Aminake et al., 2011, Schoof et al., 2010, read-out: IC50 in Plasmodium): ~10000 nM

CCC[C@@H]1C[C@@H](C(=O)N[C@@H]([C@H]2O[C@H](SC)[C@H](O)[C@@H](O)[C@H]2O)[C@H](C)Cl)N(C)C1 [clindamycin]
IC50 [4, 14]: ≥ 5000 nM
IC50 at more than 96 h ([4]; ref Wilson et al., 2013): low nanomolar range

CC[C@H]1OC(=O)[C@H](C)[C@@H](O[C@H]2C[C@@](C)(OC)[C@@H](O)[C@H](C)O2)[C@H](C)[C@@H](O[C@@H]2O[C@H](C)C[C@H](N(C)C)[C@H]2O)[C@](C)(O)C[C@@H](C)CN(C)[C@H](C)[C@@H](O)[C@]1(C)O [Azithromycin, reference compound]
activity at 2 µg/mL [1, 6]: 56.2%
activity at 2 µg/mL [1, 7]: 59.3%
activity at 2 µg/mL [1, 8]: 53.1%
3) Fold change (72 h/120 h) ([2]; P. falciparum, growth at 72 h / growth at 120 h, 2 μg/mL): 6.4
activity at 2 µg/mL [2, 9]: 8.77%
activity at 2 µg/mL [2, 10]: 17.2%
activity at 2 µg/mL [2, 11]: 0.35%
percent parasite growth at 2 µg/mL [3, 12]: 41.8%
percent parasite growth at 2 µg/mL [3, 13]: 36%
IC50 [4, 14]: ≥ 5000 nM
IC50 at more than 96 h ([4]; ref Wilson et al., 2013): low nanomolar range

spiramycin
IC50 [4, 14]: ≥ 5000 nM
IC50 at more than 96 h ([4]; ref Wilson et al., 2013): low nanomolar range

Pladienolide B
activity in the screen against P. falciparum ([1]; 72 h): active against T. gondii but not P. falciparum
activity in the screen against T. gondii ([3]; 2 μg/mL, 72 h, active = ≥80 % growth inhibition): active against T. gondii but not P. falciparum
IC50 ([3]; 72 h; read-out: IC50, T. gondii): 6.7 ± 4.4 nM
selectivity index ([5]; fibroblasts over T. gondii, for cryptopleurine the parasite is not stated): 7
IC50 ([5]; read-out: IC50, cytotoxicity against human fibroblasts, HFF, 72 h): 47 nM

CC[C@H]1OC(=O)[C@H](C)[C@@H](O[C@H]2C[C@@](C)(OC)[C@@H](O)[C@H](C)O2)[C@H](C)[C@@H](O[C@@H]2O[C@H](C)C[C@H](N(C)C)[C@H]2O)[C@](C)(O)C[C@@H](C)/C(=N\OCOCCOC)[C@H](C)[C@@H](O)[C@]1(C)O [Roxithromycin, reference compound]
activity at 2 µg/mL [1, 6]: 30.9%
activity at 2 µg/mL ([1]; Plasmodium falciparum, 3D7, P. falciparum, 72 h, parasite screen 2 μg/mL, % growth, replicate 1, read-out: Pf_72h_%Growth_Rep1): 34.6%
activity at 2 µg/mL ([1]; Plasmodium falciparum, 3D7, P. falciparum, 72 h, parasite screen 2 μg/mL, % growth, replicate 2, read-out: Pf_72h_%Growth_Rep2): 27.2%
3) Fold change (72 h/120 h) [2]: 3.6
activity at 2 µg/mL [2, 9]: 8.49%
activity at 2 µg/mL ([2]; Plasmodium falciparum, 3D7, P. falciparum, 120 h, parasite screen 2 μg/mL, % growth, replicate 1, read-out: Pf_120h_%Growth_Rep1): 18.3%
activity at 2 µg/mL ([2]; Plasmodium falciparum, 3D7, P. falciparum, 120 h, parasite screen 2 μg/mL, % growth, replicate 2, read-out: Pf_120h_%Growth_Rep2): -1.36%
percent parasite growth at 2 µg/mL ([3]; Toxoplasma gondii, 72 h, T. gondii, 72 h, parasite screen 2 μg/mL, % growth, replicate 1; read-out: Tg_72h_%Growth_Rep1): 33.7%
percent parasite growth at 2 µg/mL ([3]; Toxoplasma gondii, 72 h, T. gondii, 72 h, parasite screen 2 μg/mL, % growth, replicate 2; read-out: Tg_72h_%Growth_Rep2): 33.3%
IC50 ([4]; 48 h, ref Min et al., 2007, read-out: IC50 at 48 h): ~4000 nM
IC50 ([4]; increased treatment duration, ref Min et al., 2007, read-out: IC50 with increased treatment duration): 1000 to 2000 nM

O=C1NC(c2c[nH]c3ccc(O)cc23)=C/C1=C1\C(=O)Nc2ccccc21 [Violacein]
activity at 2 µg/mL [1, 15]: 83.3%
activity at 2 µg/mL [1, 16]: 90.2%
activity at 2 µg/mL [2, 17]: 170%
activity at 2 µg/mL [2, 18]: 91.7%
percent parasite growth at 2 µg/mL [3, 19]: 85.9%
percent parasite growth at 2 µg/mL [3, 20]: 106%

COc1c(Cl)c(O)c(Cl)c(C)c1C(=O)O[C@H]1[C@H](O)C[C@H](O[C@H]2[C@@H](O)CC(=O)O[C@@H]2C)O[C@@H]1C [Flambalactone]
Pf_72h_%Growth_Rep1 [1, 21]: 83.21%
Pf_72h_%Growth_Rep2 [1, 22]: 82.63%
Pf_120h_%Growth_Rep1 ([2]; library screen at 2 μg/mL, 120 h, % growth, replicate 1): 97.51%
Pf_120h_%Growth_Rep2 ([2]; library screen at 2 μg/mL, 120 h, % growth, replicate 2): 89.66%
Tg_72h_%Growth_Rep1 [3, 21]: 143.45%
Tg_72h_%Growth_Rep2 [3, 22]: 100.30%

CC1=CCC2CC(CC3(CCC(C)C(C)O3)O2)OC(=O)C2C=C(C)C(=NO)C3OCC(=CC=CC(C)C1)C23O (stereo not drawn) [BIA-M1531]
Pf_72h_%Growth_Rep1 ([1]; P. falciparum 3D7, 72 h, parasite screen at 2 μg/mL, % growth, replicate 1): 53.63%
Pf_72h_%Growth_Rep2 ([1]; P. falciparum 3D7, 72 h, parasite screen at 2 μg/mL, % growth, replicate 2): 28.47%
Pf_120h_%Growth_Rep1 ([2]; P. falciparum 3D7, 120 h, parasite screen at 2 μg/mL, % growth, replicate 1): 36.91%
Pf_120h_%Growth_Rep2 ([2]; P. falciparum 3D7, 120 h, parasite screen at 2 μg/mL, % growth, replicate 2): 51.60%
Tg_72h_%Growth_Rep1 ([3]; T. gondii, 72 h, parasite screen at 2 μg/mL, % growth, replicate 1): 75.89%
Tg_72h_%Growth_Rep2 ([3]; T. gondii, 72 h, parasite screen at 2 μg/mL, % growth, replicate 2): 79.64%

Nc1ncnc2c1ccn2[C@@H]1O[C@H](CO)[C@@H](O)[C@H]1O [Tubercidin]
activity at 2 µg/mL ([1]; Plasmodium falciparum, 3D7, 72 h, P. falciparum, 72 h, screen at 2 μg/mL, replicate 1, read-out: Pf_72h_%Growth_Rep1): 7.17%
activity at 2 µg/mL ([1]; Plasmodium falciparum, 3D7, 72 h, P. falciparum, 72 h, screen at 2 μg/mL, replicate 2, read-out: Pf_72h_%Growth_Rep2): 7.42%
activity at 2 µg/mL ([2]; Plasmodium falciparum, 3D7, 120 h, P. falciparum, 120 h, screen at 2 μg/mL, replicate 1, read-out: Pf_120h_%Growth_Rep1): 40.9%
activity at 2 µg/mL ([2]; Plasmodium falciparum, 3D7, 120 h, P. falciparum, 120 h, screen at 2 μg/mL, replicate 2, read-out: Pf_120h_%Growth_Rep2): 12.8%
percent parasite growth at 2 µg/mL [3, 19]: 3.92%
percent parasite growth at 2 µg/mL [3, 20]: 3.05%
